# Laboratory results as given in patent US8058243B2, “Method for treating a brain cancer with ifenprodil” (HSC Research and Development Limited Partnership, priority 2006, dated 2011).
# Structures can show the parent of a compound that is named as a salt. Where two headings read alike, the source gives them in different places.
# Test system: murine neural precursor cells (neurosphere cultures)
# Assay: HTS of LOPAC library against secondary neurosphere cultures, MTT proliferation assay at 3 μM, day 7 (z score, P value)
# Type: cell-based, mouse
# [1] = LOPAC library screen, 3 μM, MTT, secondary neurosphere cultures, day 7
# [2] = LOPAC screen, neurosphere MTT proliferation, 3 μM, day 7
# [3] = yes/no: significantly inhibited neurosphere proliferation (P<0.01) in primary screen
# [4] = LOPAC primary screen, neurosphere MTT proliferation, 3 μM, day 7
# [5] = yes/no: significantly inhibited neurosphere proliferation in primary screen
# [6] = LOPAC library screen at 3 μM, secondary neurosphere cultures, MTT
# [7] = yes = significantly inhibited neurosphere proliferation (P<0.01) in the primary screen
# [8] = primary LOPAC screen, 3 μM, MTT, neurosphere proliferation
# [9] = yes/no: significantly inhibited neurosphere proliferation in the primary screen
# [10] = LOPAC library screen at 3 μM, MTT, secondary neurosphere cultures, screened in singlets
# [11] = yes/no: significantly inhibited neurosphere proliferation (P<0.01) in the primary screen
# [12] = LOPAC library screen, 3 μM, MTT, neurosphere cultures
compound,measurement,setting,value
CNCCc1ccc(O)c(O)c1.Cl [N-Methyldopamine hydrochloride],Z Score,[1],−1.219
same,Z score,[2],−1.219
same,Activity,[3],no
CC1CCN(CC[C@H]2CCCN2S(=O)(=O)c2cccc(O)c2)CC1.Cl [SB 269970 hydrochloride],Z Score,,−1.1
same,Z score,[4],−1.100
same,Activity,[5],no
Cl.O=C(CCCN1CCC2(CC1)C(=O)N(CCc1ccc(N=C=S)cc1)CN2c1ccccc1)c1ccc(F)cc1,Z Score,[6],−0.4152
same,Z score,[4],−0.415
same,Activity,[7],no
C[N+]1(C)C2CCC1CC(OC(=O)c1c[nH]c3ccccc13)C2.[I-] (centres unmarked),Z Score,,−0.3436
same,Z score,[8],−0.344
same,Activity,[9],no
CCc1cccc(N(C)C(N)=Nc2cccc3ccccc23)c1 [CNS-1102],Activity,,yes
same,Z Score,[1],−3.782
same,Z score,[4],−3.782
CO[C@@]1(NC(=O)CSCC#N)C(=O)N2C(C(=O)O)=C(CSc3nnnn3C)CS[C@@H]21 [Cefmetazole sodium],Z Score,[10],2.503
same,Z score,[2],2.503
same,Activity,[3],no
"Cc1cc(N)c2ccccc2[n+]1CCCCCCCCCCCCCC[n+]1c(C)cc(N)c2ccccc21 [Dequalinium analog, C-14 linker]",Z Score,[1],−11.27
same,Z score,[4],−11.274
same,Activity,[11],yes
Ceramide,Z Score,,−0.8267
same,Z score,[8],−0.827
same,Activity,[9],no
C=C(C)[C@H]1Cc2c(ccc3c2O[C@@H]2COc4cc(OC)c(OC)cc4[C@@H]2C3=O)O1 [Rotenone],Z Score,,−11.27
same,Z score,[4],−11.274
same,Activity,[7],yes
CCOC(=O)N1CCC(=C2c3ccc(Cl)cc3CCc3cccnc32)CC1 [Loratadine],Z Score,[1],−1.823
same,Z score,[4],−1.823
same,Activity,[3],no
O=C(CCNNC(=O)c1ccncc1)NCc1ccccc1 [Nialamide],Z Score,[12],−0.02937
same,Z score,[4],−0.029
same,Activity,[7],no
OC[C@H]1O[C@@H](n2cnc3c(NCCc4ccccc4)ncnc32)[C@H](O)[C@@H]1O [N6-2-Phenylethyladenosine],Z Score,[12],0.5312
same,Z score,[4],0.531
same,Activity,[5],no
CNC(=C[N+](=O)[O-])NCCSCc1ccc(CN(C)C)o1 [Ranitidine hydrochloride],Z Score,[12],0.02275
same,Z score,[4],0.023
same,Activity,[5],no
N[C@@H](Cc1c[nH]c2ccccc12)C(=O)O [L-Tryptophan],Activity,,no
same,Z Score,,0.2241
same,Z score,,0.224
Br.CCCN(CCC)C1CCc2ccc(O)cc2C1 (centres unmarked) [(B1)-7-Hydroxy-DPAT hydrobromide],Z Score,,−11.1
Clc1ccccc1C(c1ccccc1)(c1ccccc1)n1ccnc1 [Clotrimazole],Z Score,[6],−0.7158
same,Z score,[2],−0.716
same,Activity,[3],no
CCCCCCC(C)(C)c1ccc([C@@H]2C[C@H](O)CC[C@H]2CCCO)c(O)c1 [CP55940],Z Score,,1.396
same,Z score,[8],1.396
same,Activity,[9],no
O=C1CCC(N2C(=O)c3ccccc3C2=O)C(=O)N1 (racemic) [(±)-Thalidomide],Z score,[8],0.521
same,Activity,[9],no
(+)-Cyclazocine,Z Score,,0.6116
same,Z score,[2],0.612
same,Activity,[3],no
Cl.O=C(O)C1CCCN(CCC=C(c2ccccc2)c2ccccc2)C1 (centres unmarked) [SKF 89976A hydrochloride],Z Score,,−0.2328
same,Z score,[4],−0.233
same,Activity,[5],no
COc1ccc(NC(=O)c2ccc(-c3ccc(-c4noc(C)n4)cc3C)cc2)cc1N1CCN(C)CC1 [GR 127935 hydrochloride],Z Score,[6],−1.081
same,Z score,[4],−1.081
same,Activity,[11],no
Cn1c(=O)c2[nH]c(-c3ccc(S(=O)(=O)O)cc3)nc2n(C)c1=O [8-(p-Sulfophenyl)theophylline],Z Score,"168 h, 3 µM",1.047
same,Z score,"168 h, 3 µM",1.047
same,Activity,[9],no
CN(C)CCC=C1c2ccccc2CCc2ccccc21 [Amitriptyline hydrochloride],Z Score,"168 h, 3 µM",0.7066
same,Z score,"168 h, 3 µM",0.707
same,Activity,[11],no
"MDL 26,630 trihydrochloride",Z Score,,0.3274
same,Z score,[4],0.327
same,Activity,[7],no
C[N+](C)(C)CC=O [Betaine aldehyde chloride],Activity,,no
same,Z Score,"168 h, 3 µM",−0.07007
same,Z score,"168 h, 3 µM",−0.070
CS(=O)(=O)Nc1ccc([N+](=O)[O-])cc1Oc1ccccc1 [Nimesulide],Activity,,yes
same,Z Score,[1],−2.395
same,Z score,[4],−2.395
Br.CCCN(CCC)[C@@H]1CCc2ccc(O)cc2C1 [R-(+)-7-Hydroxy-DPAT hydrobromide],Z Score,,−2.59
same,Z score,[4],−2.590
same,Activity,[11],yes
NC(N)=Nc1nc(CSCCC(N)=NS(N)(=O)=O)cs1 [Famotidine],Activity,,no
same,Z Score,[12],0.05489
same,Z score,[4],0.055
"Cl.FC(F)(F)c1cc(CO[C@H]2CCCN[C@H]2c2ccccc2)cc(C(F)(F)F)c1 [L-733,060 hydrochloride]",Z Score,,−1.465
same,Z score,[4],−1.465
same,Activity,[7],no
O=C1NC(c2cccc([N+](=O)[O-])c2)=CCN1c1ccccc1O [Icilin],Z Score,[10],1.643
same,Z score,[2],1.643
same,Activity,[3],no
COc1cc2c(c(OC)c1OC)-c1ccc(OC)c(=O)cc1[C@@H](NC(C)=O)CC2 [Colchicine],Activity,,yes
same,Z Score,,−10.75
same,Z score,,−10.753
CC(=N)NCCC[C@H](N)C(=O)O.Cl [L-N5-(1-Iminoethyl)ornithine hydrochloride],Z Score,,−0.9339
same,Z score,[4],−0.934
same,Activity,[3],no
CNC(=O)[C@H]1O[C@@H](n2cnc3c(NCc4ccc(N)cc4)ncnc32)[C@H](O)[C@@H]1O [AB-MECA],Z Score,,0.7604
same,Z score,[8],0.760
same,Activity,[9],no
(S)-(−)-propafenone hydrochloride,Z Score,[6],−0.7524
same,Z score,[4],−0.752
same,Activity,[5],no
Oc1ccc2c3c1O[C@H]1[C@@H](O)CC[C@@]4(O)[C@@H](C2)N(CC2CCC2)CC[C@]314 [Nalbuphine hydrochloride],Activity,,no
same,Z Score,,0.07032
same,Z score,,0.070
O=C1O/C(=C/Br)CCC1c1cccc2ccccc12 (centres unmarked) [Bromoenol lactone],Z Score,"168 h, 3 µM",0.2484
same,Z score,"168 h, 3 µM",0.248
same,Activity,[9],no
COCCCC/C(=N\OCCN)c1ccc(C(F)(F)F)cc1 [Fluvoxamine maleate],Activity,,no
same,Z Score,[12],0.1323
same,Z score,[4],0.132
NCCCS(=O)(=O)O.[Na] [3-Amino-1-propanesulfonic acid sodium],Z Score,[1],−6.691
same,Z score,[4],−6.691
same,Activity,[11],yes
CC(=O)Oc1ccccc1C(=O)O [Acetylsalicyclic acid],Z score,[8],−0.481
same,Activity,[9],no
CN1CCN(CC(=O)N2c3ccccc3C(=O)Nc3cccnc32)CC1.Cl.Cl [Pireuzepine dihydrochloride],Z Score,,−0.545
CC(C)NCC(O)COc1cccc2ccccc12.Cl (centres unmarked) [(B1)-Propranolol hydrochloride],Z Score,[12],0.3567
CC[C@@H]1C(=O)OC[C@@H]1Cc1cncn1C.Cl [(+)-Pilocarpine hydrochloride],Z Score,[1],−1.548
same,Z score,[4],−1.548
same,Activity,[7],no
CCCCCCCC/C=C\CCCCCCCC(=O)NCCc1ccc(O)c(O)c1 [N-Oleoyldopamine],Z Score,"168 h, 3 µM",0.4633
same,Z score,"168 h, 3 µM",0.463
same,Activity,[5],no
C[C@@H]1O[C@H](C[N+](C)(C)C)CS1.[I-] [OXA-22 iodide],Activity,,no
same,Z Score,,−1.666
same,Z score,,−1.666
O=C(O)/C=C/c1ccc(O)c(O)c1 [Caffeic Acid],Z Score,[12],0.3199
same,Z score,[2],0.320
same,Activity,[3],no
C=C/C(C)=C/[C@@]1(C)SC(=O)C(C)=C1O [Thiolactomycin],Z Score,[1],−1.3
same,Z score,[4],−1.300
same,Activity,[5],no
Dextrorphan D-tartrate,Activity,,no
same,Z Score,,1.569
same,Z score,,1.569
CCCCCC(O)c1cccc(OCc2ccc3ccccc3n2)c1 (centres unmarked) [REV 5901],Z Score,"168 h, 3 µM",−1.184
same,Z score,"168 h, 3 µM",−1.184
same,Activity,[5],no
"CN(N=O)c1ccc(O)c(O)c1 [Me-3,4-dephostatin]",Z Score,,0.5834
same,Z score,[4],0.583
same,Activity,[7],no
CC(N)C(=O)OC(C)(C)Cc1ccc(Cl)cc1 (centres unmarked) [Alaproclate hydrochloride],Z Score,"168 h, 3 µM",−0.1725
same,Z score,"168 h, 3 µM",−0.172
same,Activity,[9],no
C=CCc1ccccc1OCC(O)CNC(C)C (centres unmarked) [Alprenolol hydrochloride],Z Score,[1],−2.143
same,Z score,[8],−2.143
same,Activity,[9],no
Iproniazid phosphate,Z Score,[6],−0.2492
same,Z score,[4],−0.249
same,Activity,[3],no
Nc1nnc(-c2cccc(Cl)c2Cl)c(N)n1 [Lamotrigine],Z Score,[6],−1.095
same,Z score,[4],−1.095
same,Activity,[3],no
O=C(O)c1cc2cc(F)ccc2[nH]1 [5-Fluoroindole-2-carboxylic acid],Z Score,,−0.007549
same,Z score,,−0.008
NC(=O)c1ccccc1 [Benzamide],Z score,"168 h, 3 µM",0.550
same,Activity,[9],no
"Cl.c1ccc(CN2CCC3(CCCc4ccccc43)CC2)cc1 [L-687,384 hydrochloride]",Z Score,,−9.156
same,Z score,[4],−9.156
same,Activity,[7],yes
"CC(C)NCC(O)c1ccc(O)c(O)c1.Cl (single isomer, unassigned; (-)) [(−)-Isoproterenol hydrochloride]",Z Score,[12],0.2367
same,Z score,[4],0.237
same,Activity,[3],no
